The values that follow are results of earlier work, collected in paper PMC9826446 (Journal of Bone and Mineral Research, 2022).

Structures are written as SMILES.

One data set concerns ectopic calcification. The note with it: animal models of PXE; ref [1], [7], [19].
In a further data set the test system is vascular calcification. To be noted: patients with PXE, phase 2 trial; ref [27].
In the next data set the test system is TNAP. To be noted: not TNAP‐specific; ref [15], [16].

Consider `COc1ccc(Cl)cc1S(=O)(=O)Nc1cncc(C(N)=O)c1` [SBI‐425, 5‐((5‐chloro‐2‐methoxyphenyl)sulfonamido)nicotinamide], for which the anticalcification effects entry with ectopic calcification was “significant anticalcification effects”.
For `CC(O)(P(=O)(O)O)P(=O)(O)O` [etidronate], the vascular calcification entry in the data set on vascular calcification is “may reduce vascular calcification”.
For `c1ccc([C@H]2CN3CCSC3=N2)cc1` [levamisole], the “inhibition on TNAP” value in the data set with TNAP was “only weak inhibition”.
With `Cn1c(=O)c2[nH]cnc2n(C)c1=O` [theophylline], the “inhibition on TNAP” value with TNAP is “only weak inhibition”.
